Assay results published in publication PMC12064818, “A general assay platform to study protein pharmacology using ligand-dependent structural dynamics” (Nature Communications, 2025).

How the values were obtained:
NLuc = molecular target: T1, NLuc (Oplophorus gracilirostris, UniProt Q9GV45, A31E/A60N/A81I/F95D/I117V/K70R/L54V/L99Q/M102K/N193R/P142E/Q151K/Q38R/Q45L/V71I/Y165I); type: biochemical; settings: - ATP
T1 construct: His tag (inferred from IMAC purification); made in house; host or cells: E. coli
Summary of the method: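 Luminescence was read 10 min after Nano-Glo reagent addition. Enzyme was 1 nM NLuc in PBS/0.05% IGEPAL buffer, with or without ATP.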

[1] = molecular target: FLuc-C-HiBiT (firefly luciferase) (Photinus pyralis, UniProt P08659, form not given/L550V); assay: SDR assay, FLuc-C-HiBiT; settings: SDR max. response, clade S
[2] = molecular target: FLuc-C-NLuc (firefly luciferase) (Photinus pyralis, UniProt P08659, form not given/L550V); assay: SDR assay, FLuc-C-NLuc; settings: - ATP
P. pyralis FLuc = P. pyralis FLuc (Photinus pyralis, UniProt P08659); assay: FLuc enzymatic luminescence assay, P. pyralis FLuc; type: biochemical; settings: FLuc enzymatic assay, Clade S follow-up; for IC50: read-out: IC50 or SDR50 (mM) FLuc E
Summary of the method: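 Runs with and without 10 µM ATP: compounds were pre-incubated with FLuc (1–10 nM, PBS pH 7.4) at ambient temperature, light-protected, for 30–60 min. Luminescence was imaged 5 min after adding 10 µM D-luciferin (final). Inhibition was scaled between DMSO neutral and no-enzyme controls.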

Sequence of P. pyralis FLuc (P08659 whole entry): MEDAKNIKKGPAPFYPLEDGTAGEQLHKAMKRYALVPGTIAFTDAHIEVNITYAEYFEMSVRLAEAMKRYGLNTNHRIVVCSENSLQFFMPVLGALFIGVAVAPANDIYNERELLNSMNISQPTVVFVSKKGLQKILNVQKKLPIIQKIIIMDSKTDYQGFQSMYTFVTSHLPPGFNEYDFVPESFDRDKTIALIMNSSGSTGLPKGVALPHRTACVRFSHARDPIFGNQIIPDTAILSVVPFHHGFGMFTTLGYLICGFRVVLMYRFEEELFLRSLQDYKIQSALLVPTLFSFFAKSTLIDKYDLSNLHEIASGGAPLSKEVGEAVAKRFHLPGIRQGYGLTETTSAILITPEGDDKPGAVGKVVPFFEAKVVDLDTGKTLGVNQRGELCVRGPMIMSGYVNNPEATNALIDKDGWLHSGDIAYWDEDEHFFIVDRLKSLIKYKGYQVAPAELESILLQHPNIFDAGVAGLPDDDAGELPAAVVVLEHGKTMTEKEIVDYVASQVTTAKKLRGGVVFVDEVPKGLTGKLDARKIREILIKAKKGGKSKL
T1 sequence (Q9GV45 other isoform, or with tags, fused parts or gaps with the stated changes): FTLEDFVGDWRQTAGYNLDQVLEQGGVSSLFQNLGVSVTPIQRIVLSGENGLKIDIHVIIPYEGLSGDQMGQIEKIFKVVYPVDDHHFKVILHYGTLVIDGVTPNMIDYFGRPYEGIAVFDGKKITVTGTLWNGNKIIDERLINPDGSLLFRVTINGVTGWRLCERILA
Sequence of FLuc-C-HiBiT (firefly luciferase) (P08659 2-550 L550V, form open): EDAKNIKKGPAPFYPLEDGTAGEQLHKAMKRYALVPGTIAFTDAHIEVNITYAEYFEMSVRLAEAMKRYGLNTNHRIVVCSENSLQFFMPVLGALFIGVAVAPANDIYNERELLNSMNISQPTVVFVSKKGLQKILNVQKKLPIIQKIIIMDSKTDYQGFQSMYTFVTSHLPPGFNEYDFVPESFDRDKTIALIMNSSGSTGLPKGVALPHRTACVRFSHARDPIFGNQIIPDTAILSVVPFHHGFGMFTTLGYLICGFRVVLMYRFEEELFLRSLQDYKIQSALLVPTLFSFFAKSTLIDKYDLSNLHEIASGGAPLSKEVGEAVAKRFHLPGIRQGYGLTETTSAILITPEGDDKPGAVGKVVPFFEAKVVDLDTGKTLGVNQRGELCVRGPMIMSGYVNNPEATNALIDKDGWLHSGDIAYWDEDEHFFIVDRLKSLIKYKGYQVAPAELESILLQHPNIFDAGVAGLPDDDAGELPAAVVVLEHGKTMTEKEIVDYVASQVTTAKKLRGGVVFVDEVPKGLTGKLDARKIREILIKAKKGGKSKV
Sequence of FLuc-C-NLuc (firefly luciferase) (P08659 2-550 L550V, form open): as above

SMILES	Efficacy (%) NLuc (- ATP) (NLuc) [%]	% Activity (max response, + ATP) [1] [%]	% Activity (max response, - ATP) [1] [%]	Efficacy (%) FLuc-C-NLuc SDR (-ATP) [2] [%]	Efficacy (%) FLuc E (P. pyralis FLuc) [%]	pIC50 or pSDR50 FLuc E (P. pyralis FLuc)	IC50 (P. pyralis FLuc) [mM]
Cc1ccc(C2Cn3cnc(C(=O)N4CCC(C(=O)NC5CCCCC5)CC4)c3CO2)cc1 (stereo not drawn) [NCGC00449882-01]	0.00	52.31	0.00	0.00	-33.56	4.91	0.0124
Cc1ccc(C2Cn3cnc(C(=O)N4CCC(C(=O)NCCC5=CCCCC5)CC4)c3CO2)cc1 (stereo not drawn) [NCGC00449883-01]	0.00	75.13	0.00	0.00	-54.72	5.01	0.00988
Cc1ccc(C2Cn3cnc(C(=O)N4CCC(C(=O)NCc5ccccc5)CC4)c3CO2)cc1 (stereo not drawn) [NCGC00449884-01]	-9.37	91.57	0.00	0.00	-51.95	4.96	0.0111
COc1cccc(CNC(=O)C2CCN(C(=O)c3ncn4c3COC(c3ccc(C)cc3)C4)CC2)c1 (stereo not drawn) [NCGC00449886-01]	-7.20	57.89	0.00	0.00	-31.42	4.91	0.0124
COc1ccc(CNC(=O)C2CCN(C(=O)c3ncn4c3COC(c3ccc(C)cc3)C4)CC2)cc1 (stereo not drawn) [NCGC00449887-01]	0.00	80.81	0.00	0.00	-38.46	4.96	0.0111
Cc1ccc(C2Cn3cnc(C(=O)N4CCC(C(=O)NCc5ccccc5F)CC4)c3CO2)cc1 (stereo not drawn) [NCGC00449888-01]	0.00	72.23	0.00	0.00	-37.08	4.91	0.0124
Cc1ccc(C2Cn3cnc(C(=O)N4CCC(C(=O)NCc5ccc(F)cc5)CC4)c3CO2)cc1 (stereo not drawn) [NCGC00449889-01]	0.00	136.15	0.00	0.00	-57.95	5.01	0.00988
Cc1ccc(C2Cn3cnc(C(=O)N4CCC(C(=O)NCc5ccc(F)cc5F)CC4)c3CO2)cc1 (stereo not drawn) [NCGC00449890-01]	0.00	88.58	0.00	0.00	-41.53	5.01	0.00988
Cc1ccc(C2Cn3cnc(C(=O)N4CCC(C(=O)NCc5ccccc5Cl)CC4)c3CO2)cc1 (stereo not drawn) [NCGC00449891-01]	0.00	113.62	0.00	0.00	-50.12	4.96	0.0111
Cc1ccc(C2Cn3cnc(C(=O)N4CCC(C(=O)NCc5cccc(Cl)c5)CC4)c3CO2)cc1 (stereo not drawn) [NCGC00449892-01]	0.00	61.41	14.19	0.00	-30.33	4.91	0.0124
Cc1ccc(C2Cn3cnc(C(=O)N4CCC(C(=O)NC(C)c5ccccc5)CC4)c3CO2)cc1 (stereo not drawn) [NCGC00449895-01]	-8.50	100.93	0.00	0.00	-61.76	4.96	0.0111
Cc1ccc(C2Cn3cnc(C(=O)N4CCC(C(=O)NCCc5ccccc5)CC4)c3CO2)cc1 (stereo not drawn) [NCGC00449896-01]	10.33	46.98	0.00	0.00	-32.41	4.91	0.0124
